Data published in US11040987B2 (TenNor Therapeutics Limited, priority 2019, dated 2021).
≈ marks a conversion by molar mass, not a printed value.

How the values were obtained:
Assay type in all cases: cell-based
A. baumannii ATCC 19606 = assay: MIC determination, broth microdilution, ESKAPE panel; conditions: Acinetobacter baumannii, ATCC19606; iron-depleted cation-adjusted Mueller-Hinton broth, 2,2-dipyridyl 160 μM; 37° C., 18-20 hours; read-out: MIC A. baumannii ATCC 19606
Experimental: (§1) Minimum inhibitory concentration (MIC) is determined by a broth microdilution method according to the recommendation of the Clinical and Laboratory Standards Institute (CLSI) with minor modification. […] Strains of an ESKAPE panel (E. faecium ATCC 700221, S. aureus ATCC 29213, K. pneumoniae ATCC 43816, A. baumannii ATCC 19606, P. aeruginosa ATCC 27853 and Escherichia coli ATCC 25922) were obtained originally from the American Type Culture Collection (ATCC) and used for MIC determinations of compounds. The bacteria inoculum in the test is […].

E. faecium ATCC 700221 = assay: as above; conditions: Enterococcus faecium, ATCC700221; iron-depleted cation-adjusted Mueller-Hinton broth, 2,2-dipyridyl 160 μM; 37° C., 18-20 hours; read-out: MIC E. faecium ATCC 700221
Experimental: as §1

[1] = system: Escherichia coli ATCC 25922; assay: as above; conditions: ATCC25922, iron-depleted cation-adjusted Mueller-Hinton broth, 2,2-dipyridyl 160 μM, 37° C., 18-20 hours, read-out: MIC E. coli ATCC 25922
Experimental: as §1

K. pneumoniae ATCC 43816 = assay: as above; conditions: Klebsiella pneumoniae, ATCC43816; iron-depleted cation-adjusted Mueller-Hinton broth, 2,2-dipyridyl 160 μM; 37° C., 18-20 hours; read-out: MIC K. pneumoniae ATCC 43816
Experimental: as §1

P. aeruginosa ATCC 27853 = assay: as above; conditions: Pseudomonas aeruginosa, ATCC27853; iron-depleted cation-adjusted Mueller-Hinton broth, 2,2-dipyridyl 160 μM; 37° C., 18-20 hours; read-out: MIC P. aeruginosa ATCC 27853
Experimental: as §1

S. aureus ATCC 29213 = assay: as above; conditions: Staphylococcus aureus, ATCC29213; iron-depleted cation-adjusted Mueller-Hinton broth, 2,2-dipyridyl 160 μM; 37° C., 18-20 hours; read-out: MIC S. aureus ATCC 29213
Experimental: as §1

A.b TNP 41704 = assay: MIC against A. baumannii clinical isolates, alone and in combination with antibiotics; conditions: for MIC: Acinetobacter baumannii, TNP41704, Compounds alone, read-out: MIC A.b TNP 41704
A.b TNP 41708 = assay: as above; conditions: for MIC: Acinetobacter baumannii, TNP41708, read-out: MIC A.b TNP 41708
Experimental: as §1

A.b TNP 41709 = assay: as above; conditions: for MIC: Acinetobacter baumannii, TNP41709, Compounds alone, read-out: MIC A.b TNP 41709

Row | Structure (SMILES) | MIC (A. baumannii ATCC 19606) [µg/mL] | MIC (E. faecium ATCC 700221) [µg/mL] | MIC [1] [µg/mL] | MIC (K. pneumoniae ATCC 43816) [µg/mL] | MIC (P. aeruginosa ATCC 27853) [µg/mL] | MIC (S. aureus ATCC 29213) [µg/mL] | MIC (A.b TNP 41704) [µg/mL] | MIC A.b TNP 41704 (A.b TNP 41704; Compounds + meropenem (1:1)) [µg/mL] | MIC A.b TNP 41704 (A.b TNP 41704; Compounds + sulbactam (1:1)) [µg/mL] | MIC (A.b TNP 41708) [µg/mL] | MIC A.b TNP 41708 (A.b TNP 41708; Compounds + meropenem (1:1)) [µg/mL] | MIC A.b TNP 41708 (A.b TNP 41708; Compounds + sulbactam (1:1)) [µg/mL] | MIC (A.b TNP 41709) [µg/mL] | MIC A.b TNP 41709 (A.b TNP 41709; Compounds + meropenem (1:1)) [µg/mL] | MIC A.b TNP 41709 (A.b TNP 41709; Compounds + sulbactam (1:1)) [µg/mL] | MIC A.b TNP 41704 (A.b TNP 41704; Compounds + Imipenem (1:1)) [µg/mL] | MIC A.b TNP 41708 (A.b TNP 41708; Compounds + Imipenem (1:1)) [µg/mL] | MIC A.b TNP 41709 (A.b TNP 41709; Compounds + Imipenem (1:1)) [µg/mL]
1 | CN(NC(=O)c1ccc(O)c(O)c1)C(=O)OC[C@@]1(C)[C@H](C(=O)O)N2C(=O)C[C@H]2S1(=O)=O [Example 76, (2S,3R,5R)-3-(((2-(3,4-dihydroxybenzoyl)-1-methylhydrazinecarbonyl)oxy)methyl)-3-methyl-7-oxo-4-thia-1-azabicyclo[3.2.0]heptane-2-carboxylic acid 4,4-dioxide] | 1 (≈ 2.19 µM) | > 128 | > 128 | > 128 | > 128 | > 128 | > 128 | 16 | 8 | > 128 | 32 | 16 | > 128 | 16 | 8 | – | – | –
2 | CN(NC(=O)c1ccc(O)c(O)c1Cl)C(=O)OC[C@@]1(C)[C@H](C(=O)O)N2C(=O)C[C@H]2S1(=O)=O [Example 80, (2S,3R,5R)-3-(((2-(2-chloro-3,4-dihydroxybenzoyl)-1-methylhydrazinecarbonyl)oxy)methyl)-3-methyl-7-oxo-4-thia-1-azabicyclo[3.2.0]heptane-2-carboxylic acid 4,4-dioxide] | 0.25 (≈ 0.508 µM) | > 128 | 64 (≈ 130 µM) | 16 (≈ 32.5 µM) | > 128 | > 128 | > 128 | 16 | 4 | > 128 | 64 | 32 | > 128 | 32 | 8 | – | – | –
3 | C[C@H](NC(=O)c1ccc(O)c(O)c1Cl)C(=O)N/N=C/[C@@]1(C)[C@H](C(=O)O)N2C(=O)C[C@H]2S1(=O)=O [Example 62, (2S,3R,5R)-3-((E)-(2-((S)-2-(2-chloro-3,4-dihydroxybenzamido)propanoyl)hydrazono)methyl)-3-methyl-7-oxo-4-thia-1-azabicyclo[3.2.0]heptane-2-carboxylic acid 4,4-dioxide] | 4 (≈ 7.95 µM) | > 128 | > 128 | > 128 | > 128 | 128 (≈ 255 µM) | > 128 | 4 | 8 | > 128 | 4 | 8 | > 128 | 2 | 2 | – | – | –
4 | C[C@]1(c2cc(C(=O)c3ccc(O)c(O)c3)on2)[C@H](C(=O)O)N2C(=O)C[C@H]2S1(=O)=O [Example 112, (2S,3R,5R)-3-(5-(3,4-dihydroxybenzoyl)isoxazol-3-yl)-3-methyl-7-oxo-4-thia-1-azabicyclo[3.2.0]heptane-2-carboxylic acid 4,4-dioxide] | 32 (≈ 75.8 µM) | > 64 | > 64 | > 64 | > 64 | > 64 | > 64 | 16 | 2 | > 64 | 16 | 8 | > 64 | 8 | 2 | – | – | –
5 | C[C@@H](O)[C@H]1C(=O)N2C(C(=O)O)=C(S[C@@H]3CN[C@H](C(=O)N(C)C)C3)[C@H](C)[C@H]12 [Meropenem, reference compound] | 1 (≈ 2.61 µM) | > 128 | < 0.06 | < 0.06 | 0.5 (≈ 1.3 µM) | 0.125 (≈ 0.326 µM) | 64 | – | – | 128 | – | – | 128 | – | – | – | – | –
6 | CN(NC(=O)OC[C@@]1(C)[C@H](C(=O)O)N2C(=O)C[C@H]2S1(=O)=O)C(=O)c1ccc(O)c(O)c1Cl [Example 77] | 0.25 (≈ 0.508 µM) | > 128 | 64 (≈ 130 µM) | 16 (≈ 32.5 µM) | > 128 | > 128 | > 128 | 16 | 8 | > 128 | 32 | 32 | > 128 | 16 | 16 | – | – | –
7 | C[C@]1(/C=N/NC(=O)C2CCN(C(=O)c3ccc(O)c(O)c3Cl)CC2)[C@H](C(=O)O)N2C(=O)C[C@H]2S1(=O)=O [Example 42, (2S,3R,5R)-3-((E)-(2-(1-(2-chloro-3,4-dihydroxybenzoyl)piperidine-4-carbonyl)hydrazono)methyl)-3-methyl-7-oxo-4-thia-1-azabicyclo[3.2.0]heptane-2-carboxylic acid 4,4-dioxide] | 1 (≈ 1.84 µM) | > 128 | > 128 | > 128 | > 128 | 128 (≈ 236 µM) | > 128 | 2 | 8 | > 128 | 2 | 8 | > 128 | 2 | 4 | – | – | –
8 | C[C@]1(COC(=O)c2ccc(O)c(O)c2Cl)[C@H](C(=O)O)N2C(=O)C[C@H]2S1(=O)=O [Example 114, (2S,3R,5R)-3-(((2-chloro-3,4-dihydroxybenzoyl)oxy)methyl)-3-methyl-7-oxo-4-thia-1-azabicyclo[3.2.0]heptane-2-carboxylic acid 4,4-dioxide] | < 0.06 | > 128 | 8 (≈ 19.1 µM) | 2 (≈ 4.76 µM) | > 128 | 16 (≈ 38.1 µM) | > 128 | 64 | 8 | > 128 | 64 | 32 | > 128 | 64 | 16 | – | – | –
9 | C[C@]1(/C=N/NC(=O)CCNC(=O)c2ccc(O)c(O)c2)[C@H](C(=O)O)N2C(=O)C[C@H]2S1(=O)=O [Example 67, (2S,3R,5R)-3-((E)-(2-(3-(3,4-dihydroxybenzamido)propanoyl)hydrazono)methyl)-3-methyl-7-oxo-4-thia-1-azabicyclo[3.2.0]heptane-2-carboxylic acid 4,4-dioxide] | 4 (≈ 8.54 µM) | > 128 | > 128 | 128 (≈ 273 µM) | > 128 | 128 (≈ 273 µM) | > 128 | 4 | 1 | > 128 | 2 | 8 | > 128 | 4 | 8 | 4 | 4 | 8
10 | C[C@]1(/C=N/NC(=O)[C@H](CO)NC(=O)c2ccc(O)c(O)c2Cl)[C@H](C(=O)O)N2C(=O)C[C@H]2S1(=O)=O [Example 43, (2S,3R,5R)-3-((E)-(2-(2-(2-chloro-3,4-dihydroxybenzamido)-3-hydroxypropanoyl)hydrazono)methyl)-3-methyl-7-oxo-4-thia-1-azabicyclo[3.2.0]heptane-2-carboxylic acid 4,4-dioxide] | 8 (≈ 15.4 µM) | – | > 128 | > 128 | > 128 | > 128 | > 128 | 4 | 4 | > 128 | 4 | 8 | > 128 | 4 | 4 | 8 | 8 | 4
